Data from patent US4501748A, “1,4-Dihydropyridine derivatives” (Kyowa Hakko Kogyo Co., Ltd., priority 1983, dated 1985).
Structures can show the parent of a compound that is named as a salt.

Assays:
[1] = tested on: Spontaneously hypertensive rat (SHR); experiment: Hypotensive effect: oral administration to SHR (no anesthesia), plethysmographic tail method; type: in vivo, Okamoto Strain, male)
Protocol: (2) Oral Administration to SHR (no anesthesia)
Change in systolic blood pressure when drugs were orally administered to spontaneously hypertensive rat (SHR) (Okamoto Strain, aging 15 to 26 weeks, male) was measured by the plethysmographic tail method (Ueda Seisakusho, USM-105R).
Drugs were compulsorily orally administered at the dose of 0.5 ml/100 g body weight of the rat in the form of a suspension in 0.3% carboxymethyl cellulose, using a gastric tube.

mice = experiment: Acute toxicity, oral administration to mice (survival rate 72 hours after administration); type: in vivo, mice (ddY type; conditions: mice ddY male, hydrochloride, 4320 min
Protocol: (§1) Drugs were compulsorily orally administered to mice (ddY type, body weight of 20 to 24 g, male) and the survival rate 72 hours after the administration was studied. A suspension of each of the drugs in water having added a small quantity of Tween 80 thereto was orally given at the dose of 0.1 ml/10 g mouse body weight, using a gastric tube.

[2] = tested on: Spontaneously hypertensive rat (SHR); experiment: Hypotensive effect: intravenous administration to SHR (no anesthesia); type: in vivo, Okamoto strain, male); conditions: 5 animals
Protocol: (1.) Intravenous Administration to SHR (no anesthesia)
Spontaneously hypertensive rat (SHR) (Okamoto strain, aging 20 to 30 weeks, male) were anesthetized with sodium thiopental (50 mg/kg, ip). A cannula for measuring blood pressure was inserted into the descending aorta from the right femoral artery and a cannula for intravenous administration was inserted into the left carotid vein, and these cannulas were fixed on the […], respectively. Change in blood pressure by intravenous administration of each of drugs were measured next day without any anesthesia. As the drugs, a solution of each of the drugs in polyethylene glycol 400 was intravenously administered at the dose of 0.1 ml/100 g body weight of the rat.

[3] = Acute toxicity, oral administration to mice (survival rate 72 hours after administration); type: in vivo, mice (ddY type; conditions: mouse, in vivo, mice ddY male
Protocol: as §1

[4] = LD50 in the oral administration in male rats; conditions: rat, in vivo
[5] = Hypotensive effect (general statement); type: in vivo; conditions: among the (±)-α-form

COC(=O)C1=C(C)NC(C)=C(C(=O)OC2CCCN(Cc3ccccc3)C2)C1c1cccc([N+](=O)[O-])c1 (single isomer, unassigned) [(-)-α-form, (-)-α-2,6-dimethyl-4-(3-nitrophenyl)-1,4-dihydropyridine-3,5-dicarboxylic acid-3-(1-benzyl-3-piperidyl)ester-5-methyl ester hydrochloride]
Maximum Decrease in Systolic Blood Pressure ([1]; 3 mg/kg p.o., 4 animals): 22.5 ± 9.6 mmHg
Maximum Decrease in Systolic Blood Pressure ([1]; 10 mg/kg p.o., 4 animals): 30.0 ± 5.3 mmHg
Acute Toxicity LD50 (mice): 918 mg/kg
Maximum Decrease in Mean Blood Pressure ([2]; 10 μg/kg i.v., hydrochloride): 23.4 ± 7.9 mmHg
Maximum Decrease in Mean Blood Pressure ([2]; 100 μg/kg i.v.): 27.3 ± 6.1 mmHg

COC(=O)C1=C(C)NC(C)=C(C(=O)OC2CCCN(Cc3ccccc3)C2)C1c1cccc([N+](=O)[O-])c1 (racemic) [(±)-α-form, (±)-2,6-dimethyl-4-(3-nitrophenyl)-1,4-dihydropyridine-3,5-dicarboxylicacid-3-(1-benzyl-3-piperidyl)ester-5-methyl ester]
Maximum Decrease in Systolic Blood Pressure ([1]; 1 mg/kg p.o., 8 animals): 35.6 ± 6.3 mmHg
LD50 at 72 h [3]: 218 mg/kg
Maximum Decrease in Mean Blood Pressure ([2]; 1 μg/kg i.v.): 23.1 ± 6.4 mmHg
Maximum Decrease in Mean Blood Pressure ([2]; 10 μg/kg i.v.): 45.6 ± 6.5 mmHg

COC(=O)C1=C(C)NC(C)=C(C(=O)OC2CCCN(Cc3ccccc3)C2)C1c1cccc([N+](=O)[O-])c1 (single isomer, unassigned) [(+)-α-form, (+)-α-2,6-dimethyl-4-(3-nitrophenyl)-1,4-dihydropyridine-3,5-dicarboxylic acid-3-(1-benzyl-3-piperidyl)ester-5-methyl ester hydrochloride]
Maximum Decrease in Systolic Blood Pressure ([1]; 1 mg/kg p.o., 8 animals): 56.3 ± 13.0 mmHg
Acute Toxicity LD50 (mice): 95 mg/kg
LD50 [4]: 95 mg/kg
Maximum Decrease in Mean Blood Pressure ([2]; 1 μg/kg i.v.): 42.2 ± 11.5 mmHg
Maximum Decrease in Mean Blood Pressure ([2]; 10 μg/kg i.v., hydrochloride): 67.4 ± 4.7 mmHg
hypotensive effect [5]: excellent hypotensive effect
